# Experimental data published in patent US10287301B2 (Achillion Pharmaceuticals, Inc., priority 2015, dated 2019).
# Molecular target: Human Factor D (Homo sapiens (Human), UniProt P00746)
# Experiment: Human Factor D Assay
# Assay type: biochemical
# Conditions: not given
# Summary of the method: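 First, compound at various concentrations is mixed with 80 nM (final) human serum Factor D in 50 mM Tris, 1M NaCl, pH 7.5 for 5 min at room temperature.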
# Chain of Human Factor D (P00746 26-253): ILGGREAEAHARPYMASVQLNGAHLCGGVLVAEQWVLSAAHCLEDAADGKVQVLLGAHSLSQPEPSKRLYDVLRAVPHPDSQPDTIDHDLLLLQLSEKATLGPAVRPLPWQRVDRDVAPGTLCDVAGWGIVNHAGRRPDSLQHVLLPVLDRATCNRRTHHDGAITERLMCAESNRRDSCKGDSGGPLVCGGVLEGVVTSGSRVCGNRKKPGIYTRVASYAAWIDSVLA
row,SMILES,IC50
1,"NC(=O)c1nn(CC(=O)N2C[C@H](F)C[C@H]2C(=O)Nc2cccnc2Cl)c2ccc(-c3ccnnc3)cc12 [Compound 185, 1-(2-((2S,4R)-2-(2-chloropyridin-3-ylcarbamoyl)-4-fluoropyrrolidin-1-yl)-2-oxoethyl)-5-(pyridazin-4-yl)-1H-indazole-3-carboxamide]",1 to 10 µM
2,"Cc1cccc(NC(=O)[C@@H]2[C@H]3CC[C@H](C3)N2C(=O)Cn2cc(C(N)=O)c3cc(-c4n[nH]c5ccsc45)ccc32)n1 [Compound 704, 1-(2-((1R,3S,4S)-3-((6-Methylpyridin-2-yl)carbamoyl)-2-azabicyclo[2.2.1]heptan-2-yl)-2-oxoethyl)-5-(1H-thieno[3,2-c]pyrazol-3-yl)-1H-indole-3-carboxamide]",> 10 µM

# Same assay, conditions: Human Factor D 80 nM, substrate Z-L-Lys-SBzl; read-out: IC50
row,SMILES,IC50
1,"NC(=O)c1nn(CC(=O)N2C[C@H](F)C[C@H]2C(=O)Nc2ccc3cn[nH]c3c2)c2ccc(-c3ccnnc3)cc12 [Compound 86, 1-(2-((2S,4R)-2-(1H-indazol-6-ylcarbamoyl)-4-fluoropyrrolidin-1-yl)-2-oxoethyl)-5-(pyridazin-4-yl)-1H-indazole-3-carboxamide]",> 10 µM
2,"NC(=O)c1nn(CC(=O)N2C[C@H](F)C[C@H]2C(=O)Nc2cccc3c2CN(c2ccccn2)C3)c2ccc(-c3ccnnc3)cc12 [Compound 104, 1-(2-((2S,4R)-4-fluoro-2-(2-(pyridin-2-yl)isoindolin-4-ylcarbamoyl)pyrrolidin-1-yl)-2-oxoethyl)-5-(pyridazin-4-yl)-1H-indazole-3-carboxamide]",> 10 µM
3,"CC(=O)c1cn(CC(=O)N2C[C@H](F)C[C@H]2C(=O)Nc2cccc(-c3ccccc3Cl)c2F)c2ccc(-c3ccnnc3)cc12 [Compound 20, (2S,4R)-1-(2-(3-Acetyl-5-(pryridazin-4-yl)-1H-indol-1-yl)acetyl)-N-(2′-chloro-2-fluoro-[1,1′-biphenyl]-3-yl)-4-fluoropyrrolidine-2-carboxamide]",< 1 µM
4,"NC(=O)c1nn(CC(=O)N2C[C@H](F)C[C@H]2C(=O)Nc2cccc(OCc3ccccc3)n2)c2ccc(-c3ccnnc3)cc12 [Compound 73, 1-(2-((2S,4R)-2-(6-(benzyloxy)pyridin-2-ylcarbamoyl)-4-fluoropyrrolidin-1-yl)-2-oxoethyl)-5-(pyridazin-4-yl)-1H-indazole-3-carboxamide]",> 10 µM
5,"CC(=O)c1cn(CC(=O)N2C[C@H](F)C[C@H]2C(=O)Nc2cccc3c2CN(c2ccccn2)C3)c2ccc(-c3ccnnc3)cc12 [Compound 105, (2S,4R)-1-(2-(3-acetyl-5-(pyridazin-4-yl)-1H-indol-1-yl)acetyl)-4-fluoro-N-(2-(pyridin-2-yl)isoindolin-4-yl)pyrrolidine-2-carboxamide]",> 10 µM

# Same assay, conditions: Human Factor D assay of Example 8; Table 2; read-out: IC50
row,SMILES,IC50
1,"CC(=O)c1nn(CC(=O)N2C[C@H](F)C[C@H]2C(=O)NCc2cccc(Cl)c2F)c2ccc(-c3cnc(C)nc3)cc12 [Compound 226, (2S,4R)-1-(2-(3-acetyl-5-(2-methylpyrimidin-5-yl)-1H-indazol-1-yl)acetyl)-N-(3-chloro-2-fluorobenzyl)-4-fluoropyrrolidine-2-carboxamide]",< 1 µM
2,CC(=O)c1nn(CC(=O)N2C[C@H](F)C[C@H]2C(=O)Nc2cccc(Br)n2)c2ccc(-c3nc4c(s3)CCCC4)cc12 [Compound 297],> 10 µM
3,"CC(=O)c1nn(CC(=O)N2[C@@H]3C[C@@H]3C[C@H]2C(=O)Nc2cccc(Br)n2)c2ccc(-c3cnc4ccnn4c3)cc12 [Compound 238, (1R,3S,5R)-2-(2-(3-acetyl-5-(pyrazolo[1,5-a]pyrimidin-6-yl)-1H-indazol-1-yl)acetyl)-N-(6-bromopyridin-2-yl)-2-azabicyclo[3.1.0] hexane-3-carboxamide]",< 1 µM
4,"CC(=O)c1nn(CC(=O)N2C[C@H](F)C[C@H]2C(=O)Nc2cccc(F)n2)c2ccc(-c3cnc(C)nc3)cc12 [Compound 247, (2S,4R)-1-(2-(3-acetyl-5-(2-methylpyrimidin-5-yl)-1H-indazol-1-yl)acetyl)-4-fluoro-N-(6-fluoropyridin-2-yl)pyrrolidine-2-carboxamide]",< 1 µM
5,"CC(=O)c1cn(CC(=O)N2C[C@H](F)C[C@H]2C(=O)Nc2cccc(Br)n2)c2ccc(-c3cnc(C4CC4)nc3)cc12 [Compound 216, (2S,4R)-1-(2-(3-acetyl-5-(2-cyclopropylpyrimidin-5-yl)-1H-indol-1-yl)acetyl)-N-(6-bromopyridin-2-yl)-4-fluoropyrrolidine-2-carboxamide]",< 1 µM
6,"CC(=O)c1nn(CC(=O)N2CC=C[C@H]2C(=O)Nc2cccc(-c3ccccc3Cl)c2F)c2ccc(-c3cnc(C)nc3)cc12 [Compound 286, (S)-1-(2-(3-acetyl-5-(2-methylpyrimidin-5-yl)-1H-indazol-1-yl)acetyl)-N-(2′-chloro-2-fluorobiphenyl-3-yl)-2,5-dihydro-1H-pyrrole-2-carboxamide]",< 1 µM

# Same assay, conditions: Human Factor D, Table 3; read-out: IC50
row,SMILES,IC50
1,"CC(=O)c1ccc(Cl)c(-c2cccc(NC(=O)[C@@H]3C[C@H]4C[C@H]4N3C(=O)Cn3nc(C(N)=O)c4sc(-c5cnc6cc(C)nn6c5)nc43)c2F)c1 [Compound 716, 1-(2-((1R,3S,5R)-3-(5′-Acetyl-2′-chloro-2-fluorobiphenyl-3-ylcarbamoyl)-2-azabicyclo[3.1.0]hexan-2-yl)-2-oxoethyl)-5-(2-methylpyrazolo[1,5-a]pyrimidin-6-yl)-1H-pyrazolo[3,4-d]thiazole-3-carboxamide]",< 1 µM
2,"CC(=O)c1nn(CC(=O)N2[C@@H]3C[C@@H]3C[C@H]2C(=O)Nc2cccc(OC(F)(F)F)n2)c2ccc(-c3cnc4ccnn4c3)cc12 [Compound 671, (1R,3S,5R)-2-(2-(3-Acetyl-5-(pyrazolo[1,5-a]pyrimidin-6-yl)-1H-indazol-1-yl)acetyl)-N-(6-(trifluoromethoxy)pyridin-2-yl)-2-azabicyclo[3.1.0]hexane-3-carboxamide]",< 1 µM
3,"CC(=O)c1nn(CC(=O)N2C[C@H](F)C[C@H]2C(=O)Nc2cccc(Br)n2)c2ccc(-c3cnc(F)nc3)cc12 [Compound 583, (2S,4R)-1-(2-(3-Acetyl-5-(2-fluoropyrimidin-5-yl)-1H-indazol-1-yl)acetyl)-N-(6-bromopyridin-2-yl)-4-fluoropyrrolidine-2-carboxamide]",< 1 µM

# Same assay, conditions: Table 3; Human Factor D 80 nM, substrate Z-L-Lys-SBzl; read-out: IC50 (Stars)
row,SMILES,IC50
1,"CC(=O)c1nn(CC(=O)N2C[C@H](F)C[C@H]2C(=O)Nc2ccnc(OCC(F)(F)F)n2)c2ccc(-c3cnc(C)nc3)cc12 [Compound 377, (2S,4R)-1-(2-(3-Acetyl-5-(2-methylpyrimidin-5-yl)-1H-indazol-1-yl)acetyl)-4-fluoro-N-(2-(2,2,2-trifluoroethoxy)pyrimidin-4-yl)pyrrolidine-2-carboxamide]",< 1 µM
2,"CC(=O)c1nn(CC(=O)N2[C@@H]3C[C@@H]3C[C@H]2C(=O)Nc2nc(Br)ccc2C)c2ccc(-c3cnc(N)nc3)cc12 [Compound 446, (1R,3S,5R)-2-(2-(3-Acetyl-5-(2-aminopyrimidin-5-yl)-1H-indazol-1-yl)acetyl)-N-(6-bromo-3-methylpyridin-2-yl)-2-azabicyclo[3.1.0]hexane-3-carboxamide]",< 1 µM
3,"COc1ncc(-c2ccc3c(c2)c(C(C)=O)nn3CC(=O)N2C[C@H](F)C[C@H]2C(=O)Nc2cccc(Br)n2)cn1 [Compound 384, (2S,4R)-1-(2-(3-Acetyl-5-(2-methoxypyrimidin-5-yl)-1H-indazol-1-yl)acetyl)-N-(6-bromopyridin-2-yl)-4-fluoropyrrolidine-2-carboxamide]",< 1 µM
